# Reference: paper PMC11878344 (Angewandte Chemie (International Ed. in English), 2025)
# What was measured:
# [1] = test system: serine hydrolases of the mouse brain proteome (MAGL, DAGL, FAAH, ABHD6, ABHD12); test: Competitive multiplex ABPP in mouse brain proteome; assay type: biochemical; settings: 1 μM probe
# Protocol: (§1) Activity‐based protein profiling (ABPP)[49] was used to determine the selectivity of the reversible probes (9, 10) versus a broad range of other serine hydrolases, including the relevant ECS off‐targets DAGL, FAAH, ABHD6, and ABHD12.[45, 49, 50, 51] The ABPP assay was studied in the mouse brain proteome (MBP) at 1 μM concentration as mouse brain homogenate is the most relevant model system for studying ECS enzymes.[45, 49, 50, 51] […] The irreversible probes 11 and 12 could be used to visualize MAGL by in‐gel SDS‐PAGE fluorescence of MBP samples and, thereby, directly showing the specificity of 11 and 12 towards the two MAGL splicing variants present in MBP over a broad range of concentrations. Starting at 1 nM probe concentration, MAGL was detected and only at elevated concentrations greater than 1 μM, minor off‐target protein labeling at approx. 80 kDa started to appear (Figure 3 B). In addition to testing in mouse brain lysates, we also determined the binding of MAGL probes 9–12 towards a panel of 50 off‐targets via a competitive radioligand binding screen to detect interference with potential safety‐related off‐targets (Figure 3 C).
# (§2) Mouse brain sample preparation. […] Protein concentration was determined with Bradford Assay, and samples were diluted to a final concentration of 2.0 mg/mL. […]
# [2] = biological target: T1, MAGL splicing variants in mouse brain proteome (Mus musculus, UniProt O35678); test: In-gel SDS-PAGE fluorescence labeling of mouse brain proteome with irreversible probes; assay type: biochemical
# T1 sequence (O35678 1-303): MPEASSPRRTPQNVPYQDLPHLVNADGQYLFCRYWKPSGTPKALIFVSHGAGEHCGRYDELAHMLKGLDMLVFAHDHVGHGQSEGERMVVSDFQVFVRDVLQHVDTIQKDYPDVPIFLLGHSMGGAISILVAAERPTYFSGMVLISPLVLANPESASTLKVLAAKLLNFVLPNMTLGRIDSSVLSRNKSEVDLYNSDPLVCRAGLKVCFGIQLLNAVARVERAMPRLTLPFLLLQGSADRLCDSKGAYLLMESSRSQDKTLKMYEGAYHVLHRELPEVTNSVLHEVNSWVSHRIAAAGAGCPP
# Protocol: as §1, §2
smiles,measurement,setting,value
CN(C)c1ccc2c(c1)[Si](C)(C)c1cc(N(C)C)ccc1C21OC(=O)c2ccc(C(=O)NCCCCCOc3ccccc3CC3CC4(C3)CN(C(=O)N3CC5(COC(=O)N5)C3)C4)cc21 (stereo not drawn) [Compound 10],Blocking of serine hydrolase fluorescence signal (selectivity),[1],Complete blocking of the fluorescence signal was exclusively observed for MAGL
CN(C)c1ccc2c(c1)[Si](C)(C)c1cc(N(C)C)ccc1C21OC(=O)c2ccc(C(=O)NCCCCCOc3ccccc3CC3CC4(C3)CN(C(=O)OC(C(F)(F)F)C(F)(F)F)C4)cc21 (stereo not drawn) [Compound 12],Probe concentration at which minor off-target protein labeling (approx. 80 kDa) appears,[2],greater than 1 μM
same,Probe concentration from which MAGL was detected,[2],≥ 1 nM
